Data taken from US9211336B2, “Antioxidant stabilized pharmaceutical formulations comprising antineoplastic compounds” (Hikma Pharmaceuticals, priority 2013, dated 2015).

Key:
[1] = only stable in acidic conditions; cited from earlier work
[2] = Effect of controlled preparation temperature on dissolution of temozolomide
[3] = Stability study, effect of pH: temozolomide solutions in various buffers; assay type: physicochemical
[4] = solid powder, 1 month 40° C./75% RH; weight percentage
Protocol: In the tested formulations, the weight percentages of certain degradation products were measured.

Cn1nnc2c(C(N)=O)ncn2c1=O [Temozolomide, 3,4-dihydro-3-methyl-4-oxoimidazo[5,1-d]-as-tetrazine-8-carboxamide]
pH at which stable [1]: less than 5 | Observation (dissolution of temozolomide) ([2]; Prep Temp 10 ° C., About 3 hrs): Temozolomide did not dissolve | Observation (dissolution of temozolomide) ([2]; Prep Temp 15 ° C., About 2 hrs): Temozolomide did not dissolve | Observation (dissolution of temozolomide) ([2]; Prep Temp 18 ° C.): Temozolomide dissolved | Time (to dissolve) ([2]; Prep Temp 18 ° C.): About 0.5 to 0.75 hrs | Observation (dissolution of temozolomide) ([2]; Prep Temp 19 ° C.): Temozolomide dissolved | Time (to dissolve) ([2]; Prep Temp 19 ° C.): About 0.5 to 0.75 hrs | Observation (dissolution of temozolomide) ([2]; Prep Temp 20 ° C.): Temozolomide dissolved | Time (to dissolve) ([2]; Prep Temp 20 ° C.): About 0.5 to 0.75 hrs | Observation (dissolution of temozolomide) ([2]; Prep Temp 24 ° C.): Temozolomide dissolved | Time (to dissolve) ([2]; Prep Temp 24 ° C.): About 0.5 to 0.75 hrs | Observation (dissolution of temozolomide) ([2]; Prep Temp 25 ° C.): Temozolomide dissolved | Time (to dissolve) ([2]; Prep Temp 25 ° C.): About 0.5 to 0.75 hrs | Stability after 1 hr (temozolomide as % of amount originally added) ([3]; 0.1N HCl pH = 1.1): 101.7% | Stability after 5 hr ([3]; 0.1N HCl pH = 1.1): 100.2% | Stability after 6 hr ([3]; 0.1N HCl pH = 1.1): 99.8% | Stability after 1 hr (temozolomide as % of amount originally added) ([3]; Acetate Buffer pH = 4.5): 99.2% | Stability after 5 hr ([3]; Acetate Buffer pH = 4.5): 98.1% | Stability after 6 hr ([3]; Acetate Buffer pH = 4.5): 98.2% | Stability after 1 hr (temozolomide as % of amount originally added) ([3]; Hydrochloride Buffer pH = 2.2): 99.1% | Stability after 5 hr ([3]; Hydrochloride Buffer pH = 2.2): 98.6% | Stability after 6 hr ([3]; Hydrochloride Buffer pH = 2.2): 99.0% | Stability after 5 min ([3]; Phosphate Buffer pH = 6.8): 100.1% | Stability after 10 min ([3]; Phosphate Buffer pH = 6.8): 99.8% | Stability after 15 min ([3]; Phosphate Buffer pH = 6.8): 99.0% | Stability after 30 min ([3]; Phosphate Buffer pH = 6.8): 98.0% | Stability after 5 min ([3]; Phosphate Buffer pH = 7.5): 99.4% | Stability after 10 min ([3]; Phosphate Buffer pH = 7.5): 99.0% | Stability after 15 min ([3]; Phosphate Buffer pH = 7.5): 97.8% | Stability after 30 min ([3]; Phosphate Buffer pH = 7.5): 90.5% | Stability after 5 min ([3]; Water): 99.9% | Stability after 10 min ([3]; Water): 99.6% | Stability after 15 min ([3]; Water): 98.8% | Stability after 30 min ([3]; Water): 97.6% | Dacarbazine-related compound A [4]: 8.4% | Max. Unknown [4]: 0.22%
